Laboratory results reported in patent US20110077248A1, “IMIDAZOPYRIDINE AND RELATED ANALOGS AS SIRTUIN MODULATORS” (Sirtris Pharmaceuticals, Inc., priority 2008, published 2011).

Target: T1, SIRT1 (Homo sapiens, UniProt Q96EB6)
T1 construct: His-tag (N); made in house; host or cells: E. coli BL21(DE3), T7-promoter vector
T1 sequence (Q96EB6 1-747): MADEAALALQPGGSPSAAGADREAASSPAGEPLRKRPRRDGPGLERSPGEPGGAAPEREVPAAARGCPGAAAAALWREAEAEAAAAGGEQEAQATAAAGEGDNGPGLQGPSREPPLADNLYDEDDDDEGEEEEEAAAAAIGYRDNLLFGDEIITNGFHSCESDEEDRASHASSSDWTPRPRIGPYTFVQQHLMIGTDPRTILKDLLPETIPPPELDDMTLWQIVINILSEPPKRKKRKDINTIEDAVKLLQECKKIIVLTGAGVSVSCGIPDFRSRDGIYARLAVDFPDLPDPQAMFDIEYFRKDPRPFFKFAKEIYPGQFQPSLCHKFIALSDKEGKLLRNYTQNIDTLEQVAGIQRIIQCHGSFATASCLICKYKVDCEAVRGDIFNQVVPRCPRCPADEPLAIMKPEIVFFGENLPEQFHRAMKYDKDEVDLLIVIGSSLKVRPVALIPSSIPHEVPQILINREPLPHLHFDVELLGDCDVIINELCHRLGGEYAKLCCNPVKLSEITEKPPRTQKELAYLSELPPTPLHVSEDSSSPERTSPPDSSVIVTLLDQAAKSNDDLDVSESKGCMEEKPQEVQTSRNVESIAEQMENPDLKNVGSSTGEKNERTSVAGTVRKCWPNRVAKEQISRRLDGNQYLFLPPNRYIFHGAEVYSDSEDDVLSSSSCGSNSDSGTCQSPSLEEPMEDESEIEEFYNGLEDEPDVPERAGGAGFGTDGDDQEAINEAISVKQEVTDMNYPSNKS
Test: Mass spectrometry based assay for modulators of SIRT1 activity (deacetylation of p53-based acetylated peptide)
Type: biochemical
Conditions: for EC1.5: concentration of test compound that results in 150% activation of SIRT1, 0.5 μM peptide substrate, 120 μM βNAD+, 10 nM SIRT1, 25 min, 25° C.; for Emax: percent maximum fold activation of SIRT1
Description: A mass spectrometry based assay was used to identify modulators of SIRT1 activity. The mass spectrometry based assay utilizes a peptide having 20 amino acid residues as follows: Ac-EE-K(biotin)-GQSTSSHSK(Ac)NleSTEG-K(5TMRi)-EE-NH2 (SEQ ID NO: 1) wherein K(Ac) is an acetylated lysine residue and Nle is a norleucine. The peptide is labeled with the fluorophore 5TMR (excitation 540 nm/emission 580 nm) at the C-terminus. The sequence of the peptide substrate is based on p53 with several modifications. In addition, the methionine residue naturally present in the sequence was replaced with the norleucine because the methionine may be susceptible to oxidation during synthesis and purification.
The mass spectrometry assay is conducted as follows: 0.5 μM peptide substrate and 120 μM βNAD+ is incubated with 10 nM SIRT1 for 25 minutes at 25° C. in a reaction buffer (50 mM Tris-acetate pH 8, 137 mM NaCl, 2.7 mM KCl, 1 mM MgCl2, 5 mM DTT, 0.05% BSA). Test compounds may be added to the reaction as described above. The SirT1 gene is cloned into a T7-promoter containing vector and transformed into BL21(DE3). After the 25 minute incubation with SIRT1, 10 μL of 10% formic acid is added to stop the reaction. Reactions are sealed and frozen for later mass spec analysis. Determination of the mass of the substrate peptide allows for precise determination of the degree of acetylation (i.e. starting material) as compared to deacetylated peptide (product).
A control for inhibition of sirtuin activity is conducted by adding 1 μL of 500 mM nicotinamide as a negative control at the start of the reaction (e.g., permits determination of maximum sirtuin inhibition). A control for activation of sirtuin activity is conducted using 10 nM of sirtuin protein, with 1 μL of DMSO in place of compound, to determinine the amount of deacetylation of the substrate at a given timepoint within the linear range of the assay. This timepoint is the same as that used for test compounds and, within the linear range, the endpoint represents a change in velocity.
For the above assay, SIRT1 protein was expressed and purified as follows. The SirT1 gene was cloned into a T7-promoter containing vector and transformed into BL21(DE3). The protein was expressed by induction with 1 mM IPTG as an N-terminal His-tag fusion protein at 18° C. overnight and harvested at 30,000×g. Cells were lysed with lysozyme in lysis buffer (50 mM Tris-HCl, 2 mM Tris[2-carboxyethyl]phosphine (TCEP), 10 μM ZnCl2, 200 mM NaCl) and further treated with sonication for 10 min for complete lysis. The protein was purified over a Ni-NTA column (Amersham) and fractions containing pure protein were pooled, concentrated and run over a sizing column (Sephadex S200 26/60 global). The peak containing soluble protein was collected and run on an Ion-exchange column (MonoQ). Gradient elution (200 mM-500 mM NaCl) yielded pure protein. This protein was concentrated and dialyzed against dialysis buffer (20 mM Tris-HCl, 2 mM TCEP) overnight. The protein was aliquoted and frozen at −80° C. until further use.
Sirtuin modulating compounds that activated SIRT1 were identified using the assay described above and are shown below in Table 1. The EC1.5 values represent the concentration of test compounds that result in 150% activation of SIRT1. The EC1.5 values for the activating compounds are represented by A (EC1.5<1.0 uM), B (EC1.5 1-25 uM), C (EC1.5>25 uM). The percent maximum fold activation is represented by A (Fold activation >200%) or B (Fold Activation <200%). “NT” indicates the compound was not tested in a particular assay.

Row | Compound | EC1.5 | Emax [%]
1 | O=C(Nc1cccn2cc(-c3ccccc3)nc12)c1cscn1 [Compound 101] | B (EC1.5 1-25 uM) | < 200
2 | O=C(Nc1cccn2cc(-c3ccccc3)nc12)c1cnccn1 [Compound 102] | C (EC1.5>25 uM) | < 200
3 | O=C(Nc1cccn2cc(-c3ccccc3)nc12)C1CCNCC1 [Compound 103] | C (EC1.5>25 uM) | < 200
4 | O=C(Nc1cccn2cc(-c3cccc(OC(F)(F)F)c3)nc12)c1cscn1 [Compound 104] | C (EC1.5>25 uM) | < 200
5 | O=C(Nc1cccn2cc(-c3cccc(OC(F)(F)F)c3)nc12)c1cnccn1 [Compound 105] | C (EC1.5>25 uM) | < 200
6 | O=C(Nc1nccs1)c1cccn2cc(-c3ccccc3)nc12 [Compound 106] | B (EC1.5 1-25 uM) | < 200
7 | Cc1csc(NC(=O)c2cccn3cc(-c4ccccc4)nc23)n1 [Compound 107] | B (EC1.5 1-25 uM) | > 200
8 | O=C(Nc1ccccc1)c1cccn2cc(-c3ccccc3)nc12 [Compound 108] | C (EC1.5>25 uM) | < 200
9 | O=C(Nc1cnccn1)c1cccn2cc(-c3ccccc3)nc12 [Compound 109] | B (EC1.5 1-25 uM) | < 200
10 | O=C(NC1CCCC1)c1cccn2cc(-c3ccccc3)nc12 [Compound 110] | C (EC1.5>25 uM) | < 200
11 | O=C(Nc1cccn2cc(-c3cccc(C(F)(F)F)c3)nc12)c1cnccn1 [Compound 111] | B (EC1.5 1-25 uM) | < 200
12 | O=C(Nc1nccs1)c1cccn2cc(-c3cccc(C(F)(F)F)c3)nc12 [Compound 112] | C (EC1.5>25 uM) | < 200
13 | O=C(Nc1ccccc1)c1cccn2cc(-c3cccc(C(F)(F)F)c3)nc12 [Compound 113, N-phenyl-2-(3-(trifluoromethyl)phenyl)imidazo[1,2-a]pyridine-8-carboxamide] | C (EC1.5>25 uM) | < 200
14 | O=C(NC1CCCC1)c1cccn2cc(-c3cccc(OC(F)(F)F)c3)nc12 [Compound 114] | C (EC1.5>25 uM) | < 200
15 | O=C(Nc1nccs1)c1cccn2cc(-c3cccc(OC(F)(F)F)c3)nc12 [Compound 115, N-(thiazol-2-yl)-2-(3-(trifluoromethoxy)phenyl)imidazo[1,2-a]pyridine-8-carboxamide] | B (EC1.5 1-25 uM) | < 200

Now from value to molecule:

Row | EC1.5 | Emax [%] | Compound
16 | C (EC1.5>25 uM) | < 200 | O=C(Nc1nccs1)c1cccn2nc(-c3ccc(OCC(O)CO)cc3C(F)F)nc12 (stereo in doubt) [Compound 249, (R)-2-(2-(difluoromethyl)-4-(2,3-dihydroxypropoxy)phenyl)-N-(thiazol-2-yl)-[1,2,4]triazolo[1,5-a]pyridine-8-carboxamide]
17 | C (EC1.5>25 uM) | < 200 | O=C(Nc1ccccc1)c1cccn2cc(-c3cccc(OC(F)(F)F)c3)nc12 [Compound 116]
18 | B (EC1.5 1-25 uM) | < 200 | O=C(Nc1cccn2cc(-c3cccc(C(F)(F)F)c3)nc12)c1cscn1 [Compound 117]
19 | B (EC1.5 1-25 uM) | < 200 | O=C(Nc1cnccn1)c1cccn2cc(-c3cccc(C(F)(F)F)c3)nc12 [Compound 118]
20 | C (EC1.5>25 uM) | < 200 | O=C(Nc1cccn2cc(-c3cccc(C(F)(F)F)c3)nc12)c1ccncc1 [Compound 119]
21 | C (EC1.5>25 uM) | < 200 | O=C(Nc1cccn2cc(-c3cccc(C(F)(F)F)c3)nc12)c1cccnc1 [Compound 120]
22 | C (EC1.5>25 uM) | < 200 | O=C(Nc1cccn2cc(-c3cccc(-c4ccccc4)c3)nc12)c1cscn1 [Compound 121]
23 | B (EC1.5 1-25 uM) | > 200 | O=C(Nc1cccn2cc(-c3cccc(C(F)(F)F)c3)nc12)c1ncccn1 [Compound 122, N-(2-(3-(trifluoromethyl)phenyl)imidazo[1,2-a]pyridin-8-yl)pyrimidine-2-carboxamide]
24 | C (EC1.5>25 uM) | < 200 | O=C(Nc1cccn2cc(-c3cccc(-c4ccccc4)c3)nc12)c1cnccn1 [Compound 123, N-(2-(biphenyl-3-yl)imidazo[1,2-a]pyridin-8-yl)pyrazine-2-carboxamide]
25 | C (EC1.5>25 uM) | < 200 | O=C(Nc1cccn2cc(-c3cccc(-c4ccccc4)c3)nc12)c1ccncc1 [Compound 124]
26 | B (EC1.5 1-25 uM) | < 200 | O=C(Nc1cccn2cc(-c3cccc(-c4ccccc4)c3)nc12)c1ncccn1 [Compound 125]
27 | C (EC1.5>25 uM) | < 200 | O=C(Nc1cccn2cc(-c3ccccc3)nc12)c1cccc(N2CCCC2)c1 [Compound 131]
28 | A (EC1.5<1.0 uM) | > 200 | O=C(Nc1nc(CN2CCOCC2)cs1)c1cccn2cc(-c3cccc(C(F)(F)F)c3)nc12 [Compound 132, N-(4-(morpholinomethyl)thiazol-2-yl)-2-(3-(trifluoromethyl)phenyl)imidazo[1,2-a]pyridine-8-carboxamide]
29 | A (EC1.5<1.0 uM) | > 200 | O=C(Nc1nc(CN2CCOCC2)cs1)c1cccn2cc(-c3cccc(OC(F)(F)F)c3)nc12 [Compound 133]
30 | A (EC1.5<1.0 uM) | > 200 | O=C(Nc1ncc(CN2CCOCC2)s1)c1cccn2cc(-c3cccc(C(F)(F)F)c3)nc12 [Compound 134, N-(5-(morpholinomethyl)thiazol-2-yl)-2-(3-(trifluoromethyl)phenyl)imidazo[1,2-a]pyridine-8-carboxamide]
31 | B (EC1.5 1-25 uM) | > 200 | O=C(Nc1ncc(CN2CCOCC2)s1)c1cccn2cc(-c3cccc(OC(F)(F)F)c3)nc12 [Compound 135]
32 | B (EC1.5 1-25 uM) | > 200 | O=C(Nc1cccc(OCC(O)CO)c1)c1cccn2cc(-c3cccc(OC(F)(F)F)c3)nc12 (stereo not drawn) [Compound 136]
33 | A (EC1.5<1.0 uM) | > 200 | O=C(Nc1cccc(OCC(O)CO)c1)c1cccn2cc(-c3cccc(C(F)(F)F)c3)nc12 (stereo not drawn) [Compound 137, N-(3-(2,3-dihydroxypropoxy)phenyl)-2-(3-(trifluoromethyl)phenyl)imidazo[1,2-a]pyridine-8-carboxamide]
